Values belong to the compound of their own block, whether it stands above or below them.
Legend:
[1] = Tablet content uniformity (RSD) before and after roller compaction and sieving; format: physicochemical; conditions: roller compaction, Sieve A
[2] = Bulk densities (poured, tapped; Ph. Eur. 2.9.15) and Hausner factor of powders; format: physicochemical; conditions: for Hausner Factor (ρT/ρP) / Poured density (ρP) / Tapped density (ρT): un-milled drug substance
Method: Bulk density is measured according to Ph. Eur. 2.9.15 (European Pharmacopoeia, 4. Ed.) as poured density. The tapped density is measured according to Ph. Eur. 2.9.15 (see also Voigt R., Lehrbuch der pharmazeutischen Technologie [Textbook of Pharmaceutical Technology], Verlag Chemie, 5th Edition, page 148). The Hausner factor is a measure for the flowability/compressibility of powders and ideally should be close to 1. […] They range from 0.12 to 0.40 g/mL, caused by different needle lengths (Table 2). The roller compaction step was introduced for densification of the material (see Table 3), which may have • a variability of the poured density between […] (see Table 1) and • a Hausner Factor between 1.05 and 1.61 (see Table 1).

[3] = Chemical stability of the API against moisture / wet granulation; format: physicochemical
[4] = Phase I pharmacokinetics of BIBW 2992 monotherapy in cancer patients with advanced solid tumors; format: in vivo, human (cancer patients)
Method: In four Phase I studies in cancer patients with various advanced solid tumors the pharmacokinetik (PK) characteristics of BIBW 2992 were analyzed. Representative for all of the studies and all the tested dose groups (10 to 100 mg) the 40 mg dose group from one trial is being described in more detail. […] BIBW 2992 plasma concentrations increased after oral administration with peak plasma concentrations mostly around 2-5 hours after dosing. Plasma concentrations declined within the next hours (up to 9 h after dosing), displaying a first disposition phase.
The variability (gCV=geometric coefficient of variation) of the plasma concentrations of the active substance at the different time points was 109-159% up to 9 hours after drug administration but 66.9 to 72.9% at later time points (24 hours after drug administration).

[5] = Phase I pharmacokinetics of BIBW 2992 together with docetaxel in cancer patients; format: in vivo, human (cancer patients); conditions: once daily dosing, visual inspection
[6] = batch 1, roller compaction, Sieve A, Sieve B
[7] = batch 1, roller compaction, Sieve A, Sieve C
[8] = batch 1, roller compaction, Sieve A, no sieving 2
[9] = batch 2, roller compaction, Sieve A, Sieve C
[10] = batch 3, roller compaction, Sieve A, Sieve C
[11] = 10 to 100 mg, qd dosing, single dose and steady state

RSD- Tablet Content (High Dose) ([1]; batch 1, Sieve B): 1.4%
RSD- Tablet Content (Low Dose) ([1]; batch 1, Sieve B): 3.6%
RSD- Tablet Content (High Dose) ([1]; batch 1, Sieve C): 1.0%
RSD- Tablet Content (Low Dose) ([1]; batch 1, Sieve C): 1.4%
RSD- Tablet Content (High Dose) ([1]; batch 1, no sieving 2): 3.4%
RSD- Tablet Content (Low Dose) ([1]; batch 1, no sieving 2): 7.7%
RSD- Tablet Content (High Dose) ([1]; batch 2, Sieve C): 0.8%
RSD- Tablet Content (High Dose) ([1]; batch 3, Sieve C): 1.7%
Poured density ([2]; Table 3, drug substance batch 1, before processing): 0.12 g/mL
Poured density ([2]; Table 3, drug substance batch 2, before processing): 0.31 g/mL
Poured density ([2]; Table 3, drug substance batch 3, before processing): 0.40 g/mL
Poured density of Final Blend ([2]; batch 1, no roller compaction, no sieving): 0.40 g/mL
Poured density of Compacted Intermediate of BIBW 2992 MA2 [2, 6]: 0.29 g/mL
Poured density of Final Blend [2, 6]: 0.53 g/mL
Poured density of Compacted Intermediate of BIBW 2992 MA2 [2, 7]: 0.24 g/mL
Poured density of Final Blend [2, 7]: 0.53 g/mL
Poured density of Compacted Intermediate of BIBW 2992 MA2 [2, 8]: 0.33 g/mL
Poured density of Final Blend [2, 8]: 0.56 g/mL
Poured density of Compacted Intermediate of BIBW 2992 MA2 [2, 9]: 0.41 g/mL
Poured density of Final Blend [2, 9]: 0.60 g/mL
Poured density of Compacted Intermediate of BIBW 2992 MA2 [2, 10]: 0.36 g/mL
Poured density of Final Blend [2, 10]: 0.60 g/mL
Hausner Factor (ρT/ρP) ([2]; batch 0): 1.20
Poured density (ρP) ([2]; batch 0): 0.23 g/mL
Tapped density (ρT) ([2]; batch 0): 0.28 g/mL
Hausner Factor (ρT/ρP) ([2]; batch 1): 1.33
Poured density (ρP) ([2]; batch 1): 0.12 g/mL
Tapped density (ρT) ([2]; batch 1): 0.16 g/mL
Hausner Factor (ρT/ρP) ([2]; batch 2): 1.08
Poured density (ρP) ([2]; batch 2): 0.40 g/mL
Tapped density (ρT) ([2]; batch 2): 0.43 g/mL
Hausner Factor (ρT/ρP) ([2]; batch 3): 1.26
Poured density (ρP) ([2]; batch 3): 0.31 g/mL
Tapped density (ρT) ([2]; batch 3): 0.39 g/mL
chemical stability against moisture ([3]; drug substance as described in WO 2005/037824): susceptibility against moisture
Compound: CN(C)C/C=C/C(=O)Nc1cc2c(Nc3ccc(F)c(Cl)c3)ncnc2cc1O[C@H]1CCOC1.O=C(O)/C=C\C(=O)O.O=C(O)/C=C\C(=O)O [BIBW 2992 MA2]
stability during wet granulation ([3]; wet granulation processing): underwent hydrolytical decomposition and further degradation reaction

variability (gCV) of the plasma concentrations ([4]; 40 mg dose group, n=17, time points up to 9 hours after drug administration): 109-159%
time of peak plasma concentrations after dosing ([4]; 40 mg once daily oral, day 27 of Treatment Period 1, n=17): 2 to 5 h
gMean AUCτ,ss dose dependence [4, 11]: increased in a dose-proportional manner
gMean Cmax,ss dose dependence [4, 11]: increased in a dose-proportional manner
Cpre,ss (plasma concentration before drug administration at steady state) dose dependence ([4]; various clinical trials, visual inspection, data not shown): no deviation from dose-proportionality
Compound: CN(C)C/C=C/C(=O)Nc1cc2c(Nc3ccc(F)c(Cl)c3)ncnc2cc1O[C@H]1CCOC1 [BIBW 2992, 4-[(3-chloro-4-fluorophenyl)amino]-6-{[4-(N,N-dimethylamino)-1-oxo-2-buten-1-yl]amino}-7-((S)-tetrahydrofuran-3-yloxy)-quinazoline]
disposition kinetics ([4]; 40 mg once daily oral, day 27 of Treatment Period 1): at least biexponential disposition kinetics
AUC and Cmax dose dependence [5]: no sign for a deviation from a dose proportional increase
